Data as given in paper PMC11249637, “Interaction of the Atypical Tetracyclines Chelocardin and Amidochelocardin with Renal Drug Transporters” (ACS Pharmacology & Translational Science, 2024).

Legend:
Type in all cases: in vitro ADME
hMRP2 = biological target: T1, hMRP2 (Homo sapiens, UniProt Q92887); test: Two-point inhibition of hMRP2-mediated efflux of CDCF in transfected HEK293 cells; details: 1 and 10 μM; CDCF-DA 5 μM, efflux 10 min
T1 construct: expressed in transfected cells; host or cells: HEK293
Procedure: (§1) Well-characterized mOct1-, mOct2-, mOat1-, mOat2-, mOat3-, mMate1-, hOAT1-, hOAT3-, hOAT4-, hMRP2-, mMdr1a- and mMdr1b-transfected HEK293 cells and the respective vector-transfected control HEK293 cells were used.[42],[51],[52] All HEK293 cells (transporter-transfected and vector-transfected) were cultured in DMEM (Sigma, high glucose, 10% FBS, 1% penicillin (10,000 Units/mL)/streptomycin (10 mg/mL)) at 37°C under 5% CO2 in humidified atmosphere. The cells were routinely checked for the absence of mycoplasma infection. For the preparation of HEK293 cell monolayers, 24-well plates were pretreated with a poly-D-lysine hydrobromide solution (0.1 mg/mL). Each well was coated with 0.5 mL of poly-D-lysine solution and incubated for at least 15 min. […]
After preloading, the incubation buffer was removed, cells were washed twice with cold HBSS incubation buffer, and for the efflux, 0.2 mL of incubation buffer was added to each well containing the nonlabeled CHD and CDCHD or reference inhibitor (Table S1) and incubated at 37 °C for designated time intervals. […] Samples were diluted with incubation buffer, and fluorescence was measured in a 96-well plate (Sarstedt, flat bottom) at an extinction of 490 nm and emission of 535 nm. […]
(§2) The inhibitory effect I (%) and the efflux ratio was calculated in the same way described for the uptake assays.

mOct2 = biological target: T2, mOct2 (Mus musculus, UniProt O70577); test: Two-point inhibition of mOct2-mediated MPP uptake in transfected HEK293 cells; details: 1 and 10 μM; MPP 10 μM, 1 min
T2 construct: expressed in transfected cells; host or cells: HEK293
T2 sequence (O70577 1-553): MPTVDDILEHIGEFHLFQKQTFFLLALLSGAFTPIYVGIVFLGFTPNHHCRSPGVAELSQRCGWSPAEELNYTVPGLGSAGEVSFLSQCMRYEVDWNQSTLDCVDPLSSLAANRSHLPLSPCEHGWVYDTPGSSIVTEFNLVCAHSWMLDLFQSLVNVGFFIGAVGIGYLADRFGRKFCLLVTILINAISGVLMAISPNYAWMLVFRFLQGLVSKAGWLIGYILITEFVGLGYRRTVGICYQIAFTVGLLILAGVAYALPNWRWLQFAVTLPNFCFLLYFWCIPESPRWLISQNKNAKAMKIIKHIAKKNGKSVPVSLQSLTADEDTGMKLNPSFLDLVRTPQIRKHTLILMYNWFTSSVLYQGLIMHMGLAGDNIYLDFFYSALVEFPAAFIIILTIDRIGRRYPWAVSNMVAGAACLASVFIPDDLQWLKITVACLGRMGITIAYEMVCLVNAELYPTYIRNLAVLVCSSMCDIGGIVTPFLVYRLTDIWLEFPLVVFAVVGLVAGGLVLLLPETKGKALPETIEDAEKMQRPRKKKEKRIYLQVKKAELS
Procedure: as §1, with “mg/mL).” for “mg/mL). Each well was coated with 0.5 mL of poly-D-lysine solution and incubated for at least 15 min.”
For the uptake assay, the growth medium was aspirated, and each well was rinsed three times with 0.5 mL of incubation buffer (HBSS supplemented with 20 mM HEPES, pH 7.4) and incubated for 20 min at 37 °C. […] Cells were solubilized with 0.6 mL of 1N NaOH overnight and transferred into scintillation vials. ^3H and ^14C contents were measured after the addition of 2.5 mL of scintillator in a liquid scintillation counter.
The cellular protein amount was determined in parallel for each cell line (vector- and transporter-transfected) from six wells in a different 24-well reference plate using the Bradford method. […]
The inhibitory effect (I(%)) was calculated according to the formula: [drawing 5] […]

mMdr1b = biological target: T3, mMdr1b (Mus musculus, UniProt P06795); test: Two-point inhibition of mMdr1b-mediated efflux of rhodamin123 in transfected HEK293 cells; details: rhodamin123 10 μM, efflux 30 min
T3 construct: expressed in transfected cells; host or cells: HEK293
Procedure: as §1
For efflux assays, growth medium was aspirated, and each well was rinsed twice with 0.5 mL of incubation HBSS buffer (supplemented with 20 mM HEPES, pH 7.4) and then preincubated in 200 μL of incubation buffer containing 10 μM rhodamin123 and 10 μM cyclosporine A for 60 min at 37 °C for loading the cells with rhodamin123. […] Samples were diluted with incubation buffer, and fluorescence was measured in a 96-well plate (Sarstedt, flat bottom) at an extinction of 490 nm and emission of 535 nm. […]
as §2

T1 sequence (Q92887 whole entry): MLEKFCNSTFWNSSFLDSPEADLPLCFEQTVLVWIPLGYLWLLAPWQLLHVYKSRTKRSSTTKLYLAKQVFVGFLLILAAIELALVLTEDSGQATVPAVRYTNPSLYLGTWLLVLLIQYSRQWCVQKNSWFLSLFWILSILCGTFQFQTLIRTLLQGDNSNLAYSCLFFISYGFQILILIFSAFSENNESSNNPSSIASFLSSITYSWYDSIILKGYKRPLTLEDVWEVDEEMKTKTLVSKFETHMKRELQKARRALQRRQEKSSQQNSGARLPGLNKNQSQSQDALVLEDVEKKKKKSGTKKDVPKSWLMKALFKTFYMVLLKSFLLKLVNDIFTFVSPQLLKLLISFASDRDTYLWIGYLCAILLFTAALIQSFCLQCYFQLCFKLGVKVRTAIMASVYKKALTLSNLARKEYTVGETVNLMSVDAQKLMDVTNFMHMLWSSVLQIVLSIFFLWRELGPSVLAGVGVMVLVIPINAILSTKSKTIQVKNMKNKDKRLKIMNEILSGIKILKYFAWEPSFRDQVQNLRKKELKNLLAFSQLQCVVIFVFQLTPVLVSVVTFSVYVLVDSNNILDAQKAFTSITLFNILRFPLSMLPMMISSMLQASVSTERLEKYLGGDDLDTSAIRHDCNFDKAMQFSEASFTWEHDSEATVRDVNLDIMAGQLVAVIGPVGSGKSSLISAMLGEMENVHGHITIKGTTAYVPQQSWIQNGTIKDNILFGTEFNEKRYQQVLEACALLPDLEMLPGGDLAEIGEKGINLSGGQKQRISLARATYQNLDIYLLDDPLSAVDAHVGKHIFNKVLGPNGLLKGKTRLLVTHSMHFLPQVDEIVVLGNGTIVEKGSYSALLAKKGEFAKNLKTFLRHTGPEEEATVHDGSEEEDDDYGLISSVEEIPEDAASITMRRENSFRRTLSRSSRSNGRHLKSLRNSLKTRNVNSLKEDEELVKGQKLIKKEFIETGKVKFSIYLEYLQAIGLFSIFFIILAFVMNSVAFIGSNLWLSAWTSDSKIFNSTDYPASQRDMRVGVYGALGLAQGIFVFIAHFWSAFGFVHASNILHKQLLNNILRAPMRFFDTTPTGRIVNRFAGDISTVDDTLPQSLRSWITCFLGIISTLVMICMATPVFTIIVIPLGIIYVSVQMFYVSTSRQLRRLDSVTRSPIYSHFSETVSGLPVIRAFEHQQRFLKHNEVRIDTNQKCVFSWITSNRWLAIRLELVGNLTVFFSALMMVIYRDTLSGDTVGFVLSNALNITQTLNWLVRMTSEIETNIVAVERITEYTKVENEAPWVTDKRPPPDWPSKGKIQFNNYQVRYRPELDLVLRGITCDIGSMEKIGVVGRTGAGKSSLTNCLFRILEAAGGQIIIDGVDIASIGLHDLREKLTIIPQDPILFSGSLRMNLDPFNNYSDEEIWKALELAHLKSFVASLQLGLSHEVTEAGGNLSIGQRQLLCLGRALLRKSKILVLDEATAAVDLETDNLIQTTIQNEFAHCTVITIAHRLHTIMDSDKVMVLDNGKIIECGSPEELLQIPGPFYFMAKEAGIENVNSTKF
T3 sequence (P06795 whole entry): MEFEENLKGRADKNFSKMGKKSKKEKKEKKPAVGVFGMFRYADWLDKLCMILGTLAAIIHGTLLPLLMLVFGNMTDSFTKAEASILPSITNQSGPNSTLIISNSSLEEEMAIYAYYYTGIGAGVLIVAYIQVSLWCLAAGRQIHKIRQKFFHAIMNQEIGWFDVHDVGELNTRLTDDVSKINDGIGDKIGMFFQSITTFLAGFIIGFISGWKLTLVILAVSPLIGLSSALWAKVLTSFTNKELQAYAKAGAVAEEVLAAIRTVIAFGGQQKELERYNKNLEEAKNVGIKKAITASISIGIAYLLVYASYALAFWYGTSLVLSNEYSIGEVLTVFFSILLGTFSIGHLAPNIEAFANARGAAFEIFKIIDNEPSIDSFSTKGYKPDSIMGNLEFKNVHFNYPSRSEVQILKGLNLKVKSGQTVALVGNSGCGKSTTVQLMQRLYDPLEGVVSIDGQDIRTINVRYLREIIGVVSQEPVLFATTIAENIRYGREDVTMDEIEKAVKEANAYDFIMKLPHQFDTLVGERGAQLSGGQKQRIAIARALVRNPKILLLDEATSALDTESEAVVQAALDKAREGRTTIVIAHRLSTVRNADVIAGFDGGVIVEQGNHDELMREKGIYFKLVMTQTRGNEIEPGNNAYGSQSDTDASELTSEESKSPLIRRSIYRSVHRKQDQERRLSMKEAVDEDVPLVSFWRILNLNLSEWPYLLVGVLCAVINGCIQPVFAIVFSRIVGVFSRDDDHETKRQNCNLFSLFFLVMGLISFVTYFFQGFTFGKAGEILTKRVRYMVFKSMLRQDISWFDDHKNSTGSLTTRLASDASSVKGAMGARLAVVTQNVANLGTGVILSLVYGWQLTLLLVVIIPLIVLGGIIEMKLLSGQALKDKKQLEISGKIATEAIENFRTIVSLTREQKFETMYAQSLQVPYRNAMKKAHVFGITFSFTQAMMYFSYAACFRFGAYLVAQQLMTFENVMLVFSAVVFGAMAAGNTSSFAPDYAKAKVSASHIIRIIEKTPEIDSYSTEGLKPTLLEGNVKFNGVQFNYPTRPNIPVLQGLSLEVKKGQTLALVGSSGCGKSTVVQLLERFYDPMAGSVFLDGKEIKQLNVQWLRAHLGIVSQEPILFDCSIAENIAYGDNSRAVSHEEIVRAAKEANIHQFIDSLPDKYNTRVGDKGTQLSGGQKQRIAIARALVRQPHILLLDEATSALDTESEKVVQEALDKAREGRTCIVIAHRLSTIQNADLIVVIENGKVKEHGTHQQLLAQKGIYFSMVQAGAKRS

Compound	inhibitory effect on hMRP2 (in words) (hMRP2)	inhibitory effect on mOct2 (in words) (mOct2)	inhibition at 10 µM (mMdr1b; HEK293, at 10 μM, read-out: inhibitory effect on mMdr1b)	inhibitory effect on mMdr1b (in words) (mMdr1b; 1 and 10 μM)
Cc1ccc2c(C)c3c(c(O)c2c1O)C(=O)[C@@]1(O)C(=O)C(C(N)=O)=C(O)[C@@H](N)[C@H]1C3 [CDCHD, amidochelocardin]	slight inhibitory effect	No inhibitory effect	~30%	–
CC(=O)C1=C(O)[C@@H](N)[C@H]2Cc3c(c(O)c4c(O)c(C)ccc4c3C)C(=O)[C@@]2(O)C1=O [CHD, chelocardin]	slight inhibitory effect	No inhibitory effect	–	no effect
